Measurements: patent publication US11103448B2, “Manufacture of pharmaceutical compositions” (VECTURA LIMITED, priority 2003, dated 2021)

Test: Particle size distribution by Malvern particle sizer (dry powder)
Format: physicochemical
Procedure: The particle size distributions of these powdered materials indicate both the level of size reduction obtained by the co-milling, and the level of dispersion efficiency at varied pressures. The d(50) and d(97) plots provide a further indication of this dispersibility of the powders as a function of pressure.
Particle size distributions of the raw materials and selected formulations were determined by Malvern particle sizer, via the Scirroco dry powder disperser.
Twelve formulations were produced from the original powder, using the Hosokawa AS50 jet mill. Either the pure drug was passed through the mill or a blend of drug with 5% w/w of a force control agent added. The mill was used with a range of parameters. Primarily, these were injector air pressure, grinding air pressure and powder feed rate.

Structure (SMILES): CN1C(=O)CC(=O)N(c2ccccc2)c2cc(Cl)ccc21 [clobozam]
- d(50) (clobozam after co-jet milling): about 1 μm
- d(50) (clobozam before co-jet milling): about 2.6 μm
